System: Human neuroblastoma SK-N-SH cells
Experiment: Cytoprotection in human neuroblastoma SK-N-SH cells against a PI-3-kinase inhibitor, LY-294002
Format: cell-based
Details: test compound 1.0 μM with LY-294002 30 μM; survival by Alamarblue reduction one day after initiation; (A−B)/(C−B)×100
Method: Cytoprotection in human neuroblastoma SK-N-SH cells against a PI-3-kinase inhibitor, LY-294002
Human neuroblastoma SK-N-SH cells were purchased from American Type Cell Culture (ATCC). DMEM/F-12 culture medium and potassium/magnesium-free phosphate buffer saline (PBS(−)) were purchased from Nikken Biomedical Co., Ltd., N2 additives and EDTA solution from GIBCO BRL Company, fetal bovine serum (FCS) and a mixed solution of penicillin (5000 U/ml) and streptomycin (5 mg/ml) from BioWhittaker Inc., Alamarblue™ reagent from Wako Pure Chemical Industries Ltd., culture flasks from Falcon Company, collagen-coated 96-well multi-plates from Iwaki Glass Co., Ltd., and LY-294002 from Alexis Biochemicals, respectively. As for other reagents, commercially available guaranteed reagents were used.
By using DMEM/F-12 culture medium which contains 5% FCS, 0.5% N2, 10 mM HEPES, and a 1% mixed solution of penicillin (5000 U/ml) and streptomycin (5 mg/ml), SK-N-SH cells were subcultured in a carbon dioxide incubator under a mixed gas atmosphere consisting of 10% carbon dioxide and 90% air. After being cultivated to a sub-confluent stage, the cells were detached by a PBS(−) solution containing 2.5 mM EDTA and seeded onto collagen-coated 96-well multi-plates in the proportion of 1.0×10^4 cells/100 μl/well. After cultivation for 24 hours, the cells thus prepared were used for the cytoprotection assay.
(§1) There was removed 80 μl of the culture medium of SK-N-SH cells that was cultivated as described above on 96-wells, collagen-coated, multi-plates and thereto were added at the same time 40 μl each of LY-294002 of the final concentrations of 30 μM and each test compound the final concentrations of that was adjusted to be 1.0 μM, to initiate the cytotoxicity test. Hereupon, each test compound was used after adjusting the concentration to be 10 mM with dimethyl sulfoxide and LY-294002 was used after adjusting the concentration to be 100 mM with dimethyl sulfoxide, each of which was diluted prior to its use in the test.
The survival activity of nerve cells that were still living one day after initiation of the cytotoxicity test was determined by the activity of the cells to reduce the Alamarblue™ reagent as an index. There was removed 20 μl of the culture medium and 20 μl of Alamarblue™ reagent was added. The amount of Alamarblue™ reagent reduced by the cells over the period of 4 hours was calorimetrically determined (measurement wave length: 570 nm; reference wave length: 600 nm) By using a plate reader (WAKO SPECTRAMAX 250 Microplate Reader). Cytoprotection activity was calculated according to the following equation. Cytoprotection activity of each compound=(A−B)/(C−B)×100(%) • A: The survival activity of the group consisting of a test compound and LY-294002 added • B: The survival activity of the group consisting of LY-294002 added • C: The survival activity of the control group
The cytoprotection activity of each compound was obtained By using at least 4 wells for every dose of a test compound.
Cytoprotection in Human Neuroblastoma SK-N-SH Cells Against a PI-3-kinase Inhibitor, LY-294002
as §1, with “cytotoxicity assay.” for “cytotoxicity test.”
The survival activity of nerve cells that were still living one day after initiation of the cytotoxicity test was determined by the activity of the cells to reduce the Alamarblue™ reagent as an index. […]

SMILES | Cytoprotection Activity (%)
Cc1ccc(C2c3c(C)c(-n4cc5cc6c(cc5c4)OCO6)c(C)c(C)c3OC2(C)C)cc1 (stereo not shown) [Example 14a, 6-[2,2,4,6,7-pentamethyl-3-(4-methylphenyl)-2,3-dihydro-1-benzofuran-5-yl]-6H-[1,3]dioxolo[4,5-f]isoindole] | 26.6%
COc1ccc(C(=O)Nc2c(C)c(C)c3c(c2C)C(c2ccc(C(C)C)cc2)C2(CCN(C)CC2)O3)cc1 (stereo not shown) [Example 52b, N-[3-(4-Isopropylphenyl)-1′,4,6,7-tetramethylspiro[benzofuran-2(3H),4′-piperidine]-5-yl]-4-methoxybenzamide] | 16.4%
Cc1c(C)c2c(c(C)c1NC(=O)c1cccs1)C(c1ccc(C(C)C)cc1)C(C)(C)O2 (stereo not shown) [Example 24b, N-[3-(4-Isopropylphenyl)-2,2,4,6,7-pentamethyl-2,3-dihydro-1-benzofuran-5-yl]-2-thiophenecarboxamide] | 16.4%
Cc1c(C)c2c(c(C)c1NC(=O)c1ccc(Cl)cc1)C(c1ccc(C(C)C)cc1)C(C)(C)O2 (stereo not shown) [Example 20b, 4-Chloro-N-[3-(4-isopropylphenyl)-2,2,4,6,7-pentamethyl-2,3-dihydro-1-benzofuran-5-yl]benzamide] | 12.6%
COc1cc2c(cc1OC)CN(c1c(C)c(C)c3c(c1C)C(c1ccc(C)cc1)C(C)(C)O3)C2 (stereo not shown) [Example 6a, 5,6-dimethoxy-2-[2,2,4,6,7-pentamethyl-3-(4-methylphenyl)-2,3-dihydro-1-benzofuran-5-yl]isoindoline] | 28.2%
COc1ccc(CNc2c(C)c(C)c3oc(C)c(-c4ccc(C(C)C)cc4)c3c2C)cc1 [Example 45b, 3-(4-isopropylphenyl)-N-(4-methoxybenzyl)-2,4,6,7-tetramethyl-1-benzofuran-5-amine] | 20.6%
Cc1c(C)c2c(c(C)c1NC(=O)c1ccc3c(c1)OCO3)C(c1ccc(C(C)C)cc1)C(C)(C)O2 (stereo not shown) [Example 22b, N-[3-(4-Isopropylphenyl)-2,2,4,6,7-pentamethyl-2,3-dihydro-1-benzofuran-5-yl]-1,3-benzodioxol-5-carboxamide] | 12.8%

From US7101867B2, “Benzofuran derivatives, their production and use” (Takeda Pharmaceutical Company Limited, priority 1998, dated 2006)
